Key:
Format in all cases: in vivo
[1] = test system: S. frugiperda laboratory strain (susceptible); assay: Example 5C ratio study, mortality and Colby synergy, laboratory strain (protocol G); conditions: Spodoptera frugiperda, 96 hours
Protocol: (§1) Ratios of bifenthrin to chlorantraniliprole were evaluated on various crops and target pests as indicated in the protocol disclosed Table 5A below where “Lab.” Refers to laboratory, “No. of Treat.” refers to number of treatments, and Total refers to the total number of insects tested. In each evaluation, foliar application was done, the insecticide action was contact/ingestion and 32 insects were evaluated in each treatment.
(§2) The treatment schedule shown in Table 5B was used where “dose” refers to application rate, “ratio” refers to the ratio of bifenthrin to chlorantraniliprole on an a.i. basis.
(§3) Treatments were applied inside a sprayer chamber simulating a volume of 200 l/ha over soybean plants. After a drying period, treated leaves were removed from the plants and placed inside 16 well trays containing agar solution (2%) covered with filter paper. Two 16 well trays were prepared for each treatment (32 larvae/treatment). One 3rd instar larva from laboratory strains was placed in each well over the treated leaf. Trays were kept under controlled conditions of 25° C., photoperiod of 14:10 hours, and 60% RH. Morality was evaluated after 96 hours. Mortality is defined as dead and moribund larvae.
(§4) Synergy or antagonism was determined using the Colby Equation where: E=X+(100−X)(Y)/100)=X+Y−X*Y/100. X is the observed result for compound A at p grams a.e./ha. Y is the observed result for compound B at q grams a.e./ha. E is the expected result for a mixture of A and B at (p+q) g a.i./ha if there is no synergy or antagonism. If the observed value for the combination of A and B is greater than E (Obs>E) then synergy is indicated. If the observed value for the combination of A and B is less than E (Obs<E) then antagonism is indicated.
(§5) Morality on S. frugiperda was evaluated according to protocols G and H (refer to Table 5B), but where two S. frugiperda strains were tested: a laboratory strain (susceptible) and a field strain in F3 generation sampled in the 2018/2019 season in Sinop-MT region using treatment numbers 5.1 to 5.10 (refer to Table 5B). The results are reported in Tables 5E (Laboratory Strain) and 5F (Filed Strain).

[2] = test system: E. heros 3rd instar nymphs; assay: Example 5D ratio study on soybean plants, mortality and Colby synergy, nymphs (protocol C); conditions: statement for E. heros (nymphs and adults, protocols C and D)
Protocol: as §1, §2, §4
(§6) Morality on E. heros was evaluated according to protocols C and D (refer to Table 5B). […] Mortality was evaluated after 72 hours. […]

[3] = test system: S. frugiperda field strain; assay: Example 5C ratio study, mortality and Colby synergy, field strain (protocol H)
Protocol: as §1, §2, §3, §4, §5

H. armigera 3rd instar = assay: Example 5B ratio study, treated leaf bioassay, mortality and Colby synergy (protocol B)
Protocol: as §1, §2, §3, §4
Morality on H. armigera was evaluated according to protocol B (refer to Table 5B) using treatment numbers 5.1 to 5.13 (refer to Table 5B).

C. includens 3rd instar = assay: Example 5A ratio study, treated leaf bioassay, mortality and Colby synergy (protocol A); conditions: at 7.5 g a.i./ha
Protocol: as §1, §2
Treatments were applied inside a sprayer chamber simulating a volume of 200 l/ha over soybean plants. After a drying period, treated leaves were removed from the plants and placed inside 16 well trays containing agar solution (2%) covered with filter paper. […] Morality was evaluated after 96 hours. […]
Synergy or antagonism was determined using the Colby Equation where: E=X+(100−X)(Y)/100)=X+Y−X*Y/100. […]
Morality on C. includens was evaluated according to protocol A (refer to Table 5B) using treatment numbers 5.1, 5.3, 5.5 to 5.8 and 5.10 to 5.13 (refer to Table 5B). The results are reported in Table 5C below where mortality is the mean mortality, the E value was calculated by the Colby equation, and the synergy value is determined by dividing the mean mortality (%) by the expected value (E).

[4] = test system: D. melachantus 3rd instar nymphs; assay: Example 5E ratio study, mortality and Colby synergy, nymphs (protocol E); conditions: statement for D. melacanthus (nymphs and adults, protocols E and F)
Protocol: as §1, §2, §4, §6
Morality on D. melachantus was evaluated according to protocols E and F (refer to Table 5B). […]

How did the mortality at 5 g/ha ([1]; Chlorantraniliprole 5 g a.i./ha) turn out when `CNC(=O)c1cc(Cl)cc(C)c1NC(=O)c1cc(Br)nn1-c1ncccc1Cl` [Chlorantraniliprole, 5-bromo-N-[4-chloro-2-methyl-6-(methylcarbamoyl)phenyl]-2-(3-chloropyridin-2-yl)pyrazole-3-carboxamide] was run?
The mortality at 5 g/ha was 96.9%.

What about the mortality at 7.5 g/ha ([1]; Chlorantraniliprole 7.5 g a.i./ha) of the same compound?
Its mortality at 7.5 g/ha is 100%.

And the “control of E. heros” value [2]?
Its value is “did not control”.

What about the mortality at 5 g/ha ([3]; Spodoptera frugiperda, Chlorantraniliprole 5 g a.i./ha, 96 hours) of the same compound?
The mortality at 5 g/ha was 40.6%.

What about the mortality at 7.5 g/ha ([3]; Spodoptera frugiperda, Chlorantraniliprole 7.5 g a.i./ha, 96 hours) of the same compound?
The mortality at 7.5 g/ha was 59.4%.

What about the mortality at 5 g/ha (H. armigera 3rd instar; Helicoverpa armigera, Chlorantraniliprole 5 g a.i./ha, 96 hours) of the same compound?
Its mortality at 5 g/ha is 84.4%.

What about the mortality at 7.5 g/ha (H. armigera 3rd instar; Helicoverpa armigera, Chlorantraniliprole 7.5 g a.i./ha, 96 hours) of the same compound?
The mortality at 7.5 g/ha was 100%.

What about the H. armigera control (H. armigera 3rd instar; at 7.5 g a.i./ha) of the same compound?
The H. armigera control was “most effective”.

And the “control of C. includens” value (C. includens 3rd instar)?
The value was “most effective”.

What about the “control of D. melacanthus” value [4] of the same compound?
Its value is “did not control”.

Which results are given for `Cc1c(COC(=O)[C@@H]2[C@H](/C=C(\Cl)C(F)(F)F)C2(C)C)cccc1-c1ccccc1` (racemic) [Bifenthrin, 2-methylbiphenyl-3-ylmethyl (Z)-(1RS)-cis-3-(2-chloro-3,3,3-trifluoroprop-1-enyl)-2,2-dimethyl cyclopropanecarboxylate]?
mortality at 10 g/ha ([1]; Bifenthrin 10 g a.i./ha): 34.4%; mortality at 15 g/ha ([1]; Bifenthrin 15 g a.i./ha): 53.1%; mortality at 30 g/ha ([1]; Bifenthrin 30 g a.i./ha): 78.1%; mortality at 45 g/ha ([1]; Bifenthrin 45 g a.i./ha): 96.9%; mortality at 60 g/ha ([1]; Bifenthrin 60 g a.i./ha): 93.8%; mortality at 10 g/ha ([3]; Spodoptera frugiperda, Bifenthrin 10 g a.i./ha, 96 hours): 3.1%; mortality at 15 g/ha ([3]; Spodoptera frugiperda, Bifenthrin 15 g a.i./ha, 96 hours): 3.1%; mortality at 30 g/ha ([3]; Spodoptera frugiperda, Bifenthrin 30 g a.i./ha, 96 hours): 15.6%; mortality at 45 g/ha ([3]; Spodoptera frugiperda, Bifenthrin 45 g a.i./ha, 96 hours): 43.8%; mortality at 60 g/ha ([3]; Spodoptera frugiperda, Bifenthrin 60 g a.i./ha, 96 hours): 43.8%; control of S. frugiperda ([3]; lower doses of bifenthrin, especially on the field strain): lower control; mortality at 10 g/ha (H. armigera 3rd instar; Helicoverpa armigera, Bifenthrin 10 g a.i./ha, 96 hours): 0%; mortality at 15 g/ha (H. armigera 3rd instar; Helicoverpa armigera, Bifenthrin 15 g a.i./ha, 96 hours): 0%; mortality at 30 g/ha (H. armigera 3rd instar; Helicoverpa armigera, Bifenthrin 30 g a.i./ha, 96 hours): 0%; mortality at 45 g/ha (H. armigera 3rd instar; Helicoverpa armigera, Bifenthrin 45 g a.i./ha, 96 hours): 0%; mortality at 60 g/ha (H. armigera 3rd instar; Helicoverpa armigera, Bifenthrin 60 g a.i./ha, 96 hours): 9.4%; control of H. armigera (H. armigera 3rd instar; even at a higher dose of 60 g a.i./ha, H. armigera resistance to pyrethroids): lower control

Source: patent publication US11559057B2, “Insecticidal mixtures of bifenthrin and chlorantraniliprole” (FMC CORPORATION, priority 2019, dated 2023)
